From PMC11912728, “L-asparaginase from the novel Fusarium falciforme AUMC 16563: extraction, purification, characterization, and cytotoxic effects on PC-3, HePG-2, HCT-116, and MCF-7 cell lines” (BMC Microbiology, 2025)

These molecules were tested on T1, L-asparaginase (pure asparaginase) from Fusarium falciforme AUMC 16563 (assay: Nesslerization (ammonia release, […] nm), Lineweaver-Burk). Conditions: substrate 2.0-20.0 mM; pH and temperature of the kinetic assay not given.
T1 construct: native extracellular enzyme purified from culture supernatant (ethanol, DEAE-cellulose, Sephacryl S-200 HR)
Assay type: biochemical

Compound	Km
N[C@@H](CC(=O)O)C(=O)O [aspartic acid]	10.1 mM
NC(=O)C[C@H](N)C(=O)O [L-asparagine]	0.0577 mM
N[C@@H](CCC(=O)O)C(=O)O [glutamic acid]	12.2 mM
NC(=O)CC[C@H](N)C(=O)O [L-glutamine]	9.12 mM
